Results: US10603319B2, “Pyrimidine derivatives and their use in treating or preventing a respiratory syncytial virus infection” (REVIRAL LIMITED, priority 2016, dated 2020)

Assays:
RSV A2_F = biological target: T1, RSV A2_F (Human respiratory syncytial virus A, UniProt P03420); experiment: RSV fusion assay (luciferase reporter, HEK 293T/17 cells transfected with A2_F); type: cell-based; conditions: 24 hr
T1 construct: expressed in transfected cells; host or cells: HEK 293T/17
Method: HEK 293T/17 cells were cultured in T75 culture flasks in Dulbecco's medium (DMEM) containing 10% FBS and 1× Penicillin-Streptomycin (Pen/Strep) and warmed to 37° C. prior to use. The cells were passaged by first washing briefly with 3 ml phosphate buffered saline (PBS) followed by a 4 min incubation with […] at 37° C. 7 ml media was then added to the flask and the cells dispersed via pipetting (×3) against the bottom of the flask. Two further T75 flasks were each seeded with 2×10^6 cells in 15 ml fresh media.
Cells were seeded on the T75 plates at the same density as on the 6-well plates the area of a T75 flask and one 1.75 cm radius well from a 6-well plate were compared. 7.79×2 ml of 3×10^5 cells ml^−1 was used to seed a single T75 flask.
HEK cells were removed from a T75 flask as described above. The cells were counted and diluted to 3×10^5 cells/ml in fresh media. Two T75 flasks were each seeded with 15.58 ml diluted cells.
The plasmid DNA (for pFR-Luc and pcDNA3.1_Gal4/NFκB) to be transfected into the HEK cells was first prepared in serum free media (DMEM+Pen/Strep) containing the transfection reagent Fugene 6 (Promega). Transfections were set up as follows (Luc=pFR_Luc, Gal4=pcDNA3.1+_Gal4/NFκB, A2_F=pcDNA3.1+_A2_F)
Serum free media was placed in a 1.5 ml eppendorf tube then the fugene 6 was added into the media. The tube was vortexed for 1 s before being incubated at RT for 5 min. The plasmid DNA was then added to the tube, vortexed for 1 s, then incubated at RT for 15 min
The transfection reagents were then added to the appropriate T75 flask by tipping the flask on end and adding the reagents directly to the media already in the flask. The flask was then tipped on its back so the media could be mixed thoroughly whilst not disturbing the cells before placing the flask the right way up and incubating overnight at 37° C. and 5% CO2.
Compounds were diluted (in a polypropylene round-bottomed 96 well plate) 1:3 in a twelve point dilution curve to give top [final] of either 3.3 μM, 1 μM, 500 nM 200 nM or 100 nM. The Control compound was always run at a concentration of 100 nM.
The cells were then counted and diluted to 4×10^5 cells/ml in fresh media. 50 μl of transfection population 1 cells were added to all wells of the assay plates. 100 μl diluted compound (2 rows per compound), standard curve (one row) and controls (100 nM RV (100% inhibition, four wells), DMSO (0% inhibition, eight wells)) were added to the appropriate wells. 50 μl of the diluted (4×10^5 cells/ml) transfection population 2 cells when then added to all wells.
The plates were then incubated for 24 hr at 37° C. and 5% CO2
Buffers were prepared for the luciferase assay (20 mM tricine, 10 mM MgSO4, 1 mM EDTA, 10 mM DTT) and lysis (25 mM tris-phosphate, 8 mM MgCl2, 1 mM DTT, 1% Triton X-100, 15% glycerol) and stored at −20° C.
Luminescence was measured as described:
Media was discarded into Virkon and the plates washed with 100 ul PBS per well. 20 ul/well of lysis buffer was added to each well and incubated shaking for 5 min at RT. Luciferin was added to LAAB at a dilution of 1:50 to give a working luciferin buffer. 100 μl working luciferin buffer was added to each well and luminescence was measured immediately. […]

RSV A2 VR-1540 = experiment: Plaque Reduction Assay 2 (HEp-2 cells, virospot count); type: cell-based; conditions: human respiratory syncytial virus, 24 h; RSV A2, HEp-2 cells, 1 day
Excerpt: Plaque Reduction Assay 2:
This RSV plaque reduction assay is an infectivity assay which allows quantification of the number of infectious units in a distinct foci of RSV infection. This is indicated by zones of viral antigen detected by specific antibody staining within a monolayer of otherwise healthy tissue culture cells. As each plaque originates from a single infectious virus particle an accurate calculation of the anti-viral effect can be obtained by counting plaques in the presence and absence of an anti-viral compound. HEp-2 cells (ATCC, CCL23) were passaged in flasks and seeded in 96-well plates in DMEM containing antibiotics and supplemented with 10% FBS. During inoculation and subsequent incubation, cells were cultured in DMEM containing 3% FBS. 100 plaque forming unit (PFU)/well of RSV (RSV A2 VR-1540) was mixed with ten serial dilutions of compound. Subsequently, 100 μL of the virus/compound mixtures was added to confluent HEp-2 cell monolayers. The cells and virus/compound mixtures were incubated at 35° C. in a humidified 5% CO2 incubator for 1 day.
Cells were washed twice with PBS before adding 50% v/v EtOH/MeOH, and then stored at −20° C. On the day of the staining, fixative was first removed from the plates. Plates were washed 3× with PBS. A pre-titrated amount of the primary antibody was added in 60 μL PBS/2% milk powder, and plates incubated for 1 h at rt. The plates were washed 3× with PBS/0.05% Tween20 before addition of goat anti-mouse horse radish peroxidase in 60 μL PBS/2% milk powder, and incubated for 1 h at rt. Following three wash steps with PBS/0.05% Tween20, 60 μL ready-to-use TrueBlue was added and plates were incubated at rt for 10-15 min before adding MilliQ water. Plates were washed once with water, incubated for 30-60 min and after removal of water, air-dried in the dark.
Plates were scanned and analyzed using the Immunospot S6 UV analyzer, which is equipped with BioSpot analysis software for counting immunostained plaques (virospots). Plaque counts were used to calculate % infection relative to the mean of the spot count (SC) in the virus control wells for RSV. IC50/IC90 values were calculated as 50% or 90% reduction in signal, respectively, by interpolation of inhibition curves fitted with a 4-parameter nonlinear regression with a variable slope in GraphPad 5.0 (Prism).

[1] = Fusion activity IC50 μM, HEK 293T/17 cells
[2] = Fusion activity PIC50, HEK 293T/17 cells

T1 sequence (P03420 137-574): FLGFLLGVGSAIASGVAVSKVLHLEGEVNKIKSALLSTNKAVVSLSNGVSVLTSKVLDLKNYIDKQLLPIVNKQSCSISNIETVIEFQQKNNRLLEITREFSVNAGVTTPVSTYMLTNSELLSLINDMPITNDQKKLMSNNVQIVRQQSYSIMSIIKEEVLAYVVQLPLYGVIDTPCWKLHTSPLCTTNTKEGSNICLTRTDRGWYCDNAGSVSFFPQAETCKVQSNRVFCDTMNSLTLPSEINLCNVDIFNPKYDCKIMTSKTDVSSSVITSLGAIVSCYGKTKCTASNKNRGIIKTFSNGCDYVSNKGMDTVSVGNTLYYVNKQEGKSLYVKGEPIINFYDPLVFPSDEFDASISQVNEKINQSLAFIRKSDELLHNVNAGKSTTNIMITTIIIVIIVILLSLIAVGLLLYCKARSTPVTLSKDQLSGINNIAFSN
T1 sequence (P03420 26-109): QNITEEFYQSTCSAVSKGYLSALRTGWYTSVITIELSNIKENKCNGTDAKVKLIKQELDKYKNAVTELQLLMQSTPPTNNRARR

| SMILES | IC50 (RSV A2_F; [1]) [µM] | IC50 (RSV A2_F; [2]) [µM] | IC50 (RSV A2 VR-1540) [µM] |
| --- | --- | --- | --- |
| CC(=O)N1CCN(c2nc(N3CCC(N)C3)ncc2CN2C(=O)C3(CC3)c3ccc(F)cc32)CC1 (centres unmarked) [Compound 17, 1′-{[4-(4-Acetylpiperazin-1-yl)-2-(3-aminopyrrolidin-1-yl)pyrimidin-5-yl]methyl}-6′-fluoro-1′,2′-dihydrospiro[cyclopropane-1,3′-indole]-2′-one] | 5.46 |  |  |
| NC1CCN(c2ncc(CN3C(=O)C4(CC4)c4ccc(F)cc43)c(NCCN3CCOCC3)n2)C1 (centres unmarked) [Compound 3, 1′-((2-(3-Aminopyrrolidin-1-yl)-4-((2-morpholinoethyl)amino)pyrimidin-5-yl)methyl)-6′-fluorospiro[cyclopropane-1,3′-indolin]-2′-one] | 4.18 |  |  |
| NC1CCN(c2ncc(CN3C(=O)C4(CC4)c4ccc(F)cc43)c(NCCCCCO)n2)C1 (centres unmarked) [Compound 19, 1′-{[2-(3-Aminopyrrolidin-1-yl)-4-[(5-hydroxypentyl)amino]pyrimidin-5-yl]methyl}-6′-fluoro-1′,2′-dihydrospiro[cyclopropane-1,3′-indole]-2′-one] | 0.362 |  |  |
| NC1CCN(c2ncc(CN3C(=O)C4(CC4)c4ccc(F)cc43)c(OCCCF)n2)C1 (centres unmarked) [Compound 22, 1′-{[2-(3-Aminopyrrolidin-1-yl)-4-(3-fluoropropoxy)pyrimidin-5-yl]methyl}-6′-fluoro-1′,2′-dihydrospiro[cyclopropane-1,3′-indole]-2′-one] | 0.951 |  |  |
| NC1CCN(c2nc(NCCCCO)ncc2CN2C(=O)C3(CC3)c3ccc(F)cc32)C1 (centres unmarked) [Compound 12, 1′-((4-(3-Aminopyrrolidin-1-yl)-2-((4-hydroxybutyl)amino)pyrimidin-5-yl)methyl)-6′-fluorospiro[cyclopropane-1,3′-indolin]-2′-one] | 4.78 |  |  |
| NC1CCN(c2ncc(CN3C(=O)C4(CC4)c4ccc(F)cc43)c(C#CCCCO)n2)C1 (centres unmarked) [Compound 21, 1′-{[2-(3-Aminopyrrolidin-1-yl)-4-(5-hydroxypent-1-yn-1-yl)pyrimidin-5-yl]methyl}-6′-fluoro-1′,2′-dihydrospiro[cyclopropane-1,3′-indole]-2′-one] |  | 25.1 |  |
| CS(=O)(=O)CCNc1nc(N2CCC(N)C2)ncc1CN1C(=O)C2(CC2)c2ccc(F)cc21 (centres unmarked) [Compound 18, 1′-{[2-(3-Aminopyrrolidin-1-yl)-4-[(2-methanesulfonylethyl)amino]pyrimidin-5-yl]methyl}-6′-fluoro-1′,2′-dihydrospiro[cyclopropane-1,3′-indole]-2′-one] | 0.885 |  |  |
| NC1CCN(c2ncc(CN3C(=O)C4(CC4)c4ccc(F)cc43)c(NC3CCOCC3)n2)C1 (centres unmarked) [Compound 10, 1′-((2-(3-Aminopyrrolidin-1-yl)-4-((tetrahydro-2H-pyran-4-yl)amino)pyrimidin-5-yl)methyl)-6′-fluorospiro[cyclopropane-1,3′-indolin]-2′-one] | 0.184 |  | 0.033 |
| CCCNc1nc(N2CCC(N)C2)ncc1CN1C(=O)C2(CC2)c2ccc(F)cc21 (centres unmarked) [Compound 28, 1′-{[2-(3-Aminopyrrolidin-1-yl)-4-(propylamino)pyrimidin-5-yl]methyl}-6′-fluoro-1′,2′-dihydrospiro[cyclopropane-1,3′-indole]-2′-one] | 1.23 |  | 0.063 |
| CCNc1nc(N2CCC(N)C2)ncc1CN1C(=O)C2(CC2)c2ccc(F)cc21 (centres unmarked) [Compound 29, 1′-{[2-(3-Aminopyrrolidin-1-yl)-4-(ethylamino)pyrimidin-5-yl]methyl}-6′-fluoro-1′,2′-dihydrospiro[cyclopropane-1,3′-indole]-2′-one] | 1.17 |  | 0.74 |
| CS(=O)(=O)N1CCN(c2nc(N3CCC(N)C3)ncc2CN2C(=O)C3(CC3)c3ccc(F)cc32)CC1 (centres unmarked) [Compound 14, 1′-{[2-(3-Aminopyrrolidin-1-yl)-4-(4-methanesulfonylpiperazin-1-yl)pyrimidin-5-yl]methyl}-6′-fluoro-1′,2′ dihydrospiro[cyclopropane-1,3′-indole]-2′-one] | 1.2 |  |  |
| CC(C)CCNc1nc(N2CCCC2)ncc1CN1C(=O)C2(CC2)c2ccc(F)cc21 [Compound 7, 6′-Fluoro-1′-((4-(isopentylamino)-2-(pyrrolidin-1-yl)pyrimidin-5-yl)methyl)spiro[cyclopropane-1,3′-indolin]-2′-one] | 1.99 |  |  |
| NC1CCN(c2ncc(CN3C(=O)C4(CC4)c4ccc(F)cc43)c(SCCCCO)n2)C1 (centres unmarked) [Compound 16, 1′-{[2-(3-Aminopyrrolidin-1-yl)-4-[(4-hydroxybutyl)sulfanyl]pyrimidin-5-yl]methyl}-6′-fluoro-1′,2′-dihydrospiro[cyclopropane-1,3′-indole]-2′-one] | 2.79 | 2.75 |  |
| NC1CCN(c2ncc(CN3C(=O)C4(CC4)c4ccc(F)cc43)c(N3CCOCC3)n2)C1 (centres unmarked) [Compound 9, 1′-((2-(3-Aminopyrrolidin-1-yl)-4-morpholinopyrimidin-5-yl)methyl)-6′-fluorospiro[cyclopropane-1,3′-indolin]-2′-one] | 3.66 |  |  |
| CC(C)CNc1nc(N2CCOCC2)ncc1CN1C(=O)C2(CC2)c2ccc(F)cc21 [Compound 8, 6′-Fluoro-1′-((4-(isobutylamino)-2-morpholinopyrimidin-5-yl)methyl)spiro[cyclopropane-1,3′-indolin]-2′-one] | 8.53 |  |  |
| NC1CCN(c2ncc(CN3C(=O)C4(CC4)c4ccc(F)cc43)c(NCC3CCOCC3)n2)C1 (centres unmarked) [Compound 23, 1′-{[2-(3-Aminopyrrolidin-1-yl)-4-{[(oxan-4-yl)methyl]amino}pyrimidin-5-yl]methyl}-6′-fluoro-1′,2′-dihydrospiro[cyclopropane-1,3′-indole]-2′-one] | 0.451 |  |  |
| CC(C)CNc1nc(N2CCC(CN)CC2)ncc1CN1C(=O)C2(CC2)c2ccc(F)cc21 [Compound 6] | 5.22 |  |  |
| COCCCNc1nc(N2CCC(N)C2)ncc1CN1C(=O)C2(CC2)c2ccc(F)cc21 (centres unmarked) [Compound 11, 1′-((2-(3-Aminopyrrolidin-1-yl)-4-((3-methoxypropyl)amino)pyrimidin-5-yl)methyl)-6′-fluorospiro[cyclopropane-1,3′-indolin]-2′-one] | 0.424 |  |  |
| NC1CCN(c2ncc(CN3C(=O)C4(CC4)c4ccc(F)cc43)c(NCCCCO)n2)CC1 [Compound 24, 1′-{[2-(4-Aminopiperidin-1-yl)-4-[(4-hydroxybutyl)amino]pyrimidin-5-yl]methyl}-6′-fluoro-1′,2′-dihydrospiro[cyclopropane-1,3′-indole]-2′-one] | 0.695 |  |  |
